BindingDB's records for doi:10.1016/j.chembiol.2014.12.015 (University of Florida College of Medicine, 2015)

What was measured:
Experiment in all cases: HDAC Activity Assays
[1] = target: Histone deacetylase 3/Nuclear receptor corepressor 2 [395-498] (Homo sapiens, UniProt O15379)
Description: (§1) The enzyme activities were initially tested in a serial dilution of each HDAC using the HDAC-Glo I/II reagents (Promega) according to the manufacturer s protocol. Luminescence was detected using the BMG POLARstar Omega microplate reader. A concentration of each HDAC within the linear response region was used for assaying inhibition of HDAC activity by UF010 and analogs. Each compound was tested in 10-point dose-response assay in triplicate.

[2] = target: Histone deacetylase 2/Nuclear receptor corepressor 2 [395-498] (Homo sapiens, UniProt Q92769)
Description: as §1

[3] = target: Histone deacetylase 1/Nuclear receptor corepressor 2 [395-498] (Homo sapiens, UniProt Q13547)
Description: as §1

Histone deacetylase 6 = target: T1, Histone deacetylase 6 (Homo sapiens, UniProt Q9UBN7)
T1 sequence (Q9UBN7 whole entry): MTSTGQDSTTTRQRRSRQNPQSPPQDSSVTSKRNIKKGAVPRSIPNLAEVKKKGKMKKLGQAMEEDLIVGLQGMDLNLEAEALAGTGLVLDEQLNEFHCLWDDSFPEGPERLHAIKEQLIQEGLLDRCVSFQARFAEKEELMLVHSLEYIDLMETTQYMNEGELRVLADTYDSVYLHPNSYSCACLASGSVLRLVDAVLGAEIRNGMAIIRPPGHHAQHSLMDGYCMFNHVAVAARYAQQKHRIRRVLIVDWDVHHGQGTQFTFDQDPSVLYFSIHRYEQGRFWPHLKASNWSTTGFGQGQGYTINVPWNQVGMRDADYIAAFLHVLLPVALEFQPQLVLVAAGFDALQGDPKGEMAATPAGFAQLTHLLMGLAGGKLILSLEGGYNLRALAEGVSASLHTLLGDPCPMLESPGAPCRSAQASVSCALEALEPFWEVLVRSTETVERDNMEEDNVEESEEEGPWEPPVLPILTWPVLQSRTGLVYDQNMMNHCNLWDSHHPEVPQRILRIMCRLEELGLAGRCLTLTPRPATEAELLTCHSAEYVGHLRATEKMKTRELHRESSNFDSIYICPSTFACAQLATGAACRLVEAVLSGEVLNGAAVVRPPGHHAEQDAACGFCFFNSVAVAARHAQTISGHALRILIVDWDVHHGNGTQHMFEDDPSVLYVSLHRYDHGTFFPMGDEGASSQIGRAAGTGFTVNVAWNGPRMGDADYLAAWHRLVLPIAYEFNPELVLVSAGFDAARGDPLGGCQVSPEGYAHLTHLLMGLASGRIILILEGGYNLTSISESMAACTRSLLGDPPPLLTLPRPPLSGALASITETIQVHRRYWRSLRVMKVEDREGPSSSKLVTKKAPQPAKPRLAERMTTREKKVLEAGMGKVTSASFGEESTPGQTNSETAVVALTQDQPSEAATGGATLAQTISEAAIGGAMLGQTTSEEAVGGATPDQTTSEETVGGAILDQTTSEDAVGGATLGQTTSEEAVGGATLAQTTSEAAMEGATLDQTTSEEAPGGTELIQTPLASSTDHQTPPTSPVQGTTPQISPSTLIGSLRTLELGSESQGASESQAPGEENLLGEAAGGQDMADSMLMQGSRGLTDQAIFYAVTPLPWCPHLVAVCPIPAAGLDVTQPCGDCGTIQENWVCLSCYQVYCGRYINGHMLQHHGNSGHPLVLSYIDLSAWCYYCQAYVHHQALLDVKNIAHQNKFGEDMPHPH
Description: as §1

Histone deacetylase 8 = target: T2, Histone deacetylase 8 (Homo sapiens, UniProt Q9BY41)
T2 sequence (Q9BY41 whole entry): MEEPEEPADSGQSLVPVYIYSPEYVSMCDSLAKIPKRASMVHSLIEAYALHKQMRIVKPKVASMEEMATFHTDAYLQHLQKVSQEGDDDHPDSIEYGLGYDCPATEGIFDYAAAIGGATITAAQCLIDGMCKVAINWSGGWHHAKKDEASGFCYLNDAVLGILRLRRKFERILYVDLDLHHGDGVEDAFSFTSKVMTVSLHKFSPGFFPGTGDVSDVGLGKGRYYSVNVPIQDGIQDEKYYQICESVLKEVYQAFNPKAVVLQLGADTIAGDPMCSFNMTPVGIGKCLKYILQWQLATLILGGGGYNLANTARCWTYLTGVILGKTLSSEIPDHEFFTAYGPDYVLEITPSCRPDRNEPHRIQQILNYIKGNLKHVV
Description: as §1

Chain of Histone deacetylase 1/Nuclear receptor corepressor 2 [395-498] (Q13547 whole entry): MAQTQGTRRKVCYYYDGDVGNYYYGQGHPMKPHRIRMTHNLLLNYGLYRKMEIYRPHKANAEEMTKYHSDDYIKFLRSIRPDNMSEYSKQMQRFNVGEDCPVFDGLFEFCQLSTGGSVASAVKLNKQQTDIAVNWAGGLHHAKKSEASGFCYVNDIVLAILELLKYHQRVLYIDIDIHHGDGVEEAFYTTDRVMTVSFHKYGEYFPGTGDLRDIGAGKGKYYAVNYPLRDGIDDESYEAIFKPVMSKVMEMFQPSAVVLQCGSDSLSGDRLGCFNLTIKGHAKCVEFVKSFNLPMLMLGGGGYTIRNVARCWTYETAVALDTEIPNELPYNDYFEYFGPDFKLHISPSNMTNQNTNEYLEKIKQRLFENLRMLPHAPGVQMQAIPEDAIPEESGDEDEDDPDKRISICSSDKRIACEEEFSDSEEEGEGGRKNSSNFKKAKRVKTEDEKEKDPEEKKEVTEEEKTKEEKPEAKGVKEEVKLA
Chain of Histone deacetylase 1/Nuclear receptor corepressor 2 [395-498] (Q9Y618 395-498, further chain): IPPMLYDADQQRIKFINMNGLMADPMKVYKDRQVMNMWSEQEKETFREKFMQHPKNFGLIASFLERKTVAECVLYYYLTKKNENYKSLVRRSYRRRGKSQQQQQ
Chain of Histone deacetylase 2/Nuclear receptor corepressor 2 [395-498] (Q92769 whole entry): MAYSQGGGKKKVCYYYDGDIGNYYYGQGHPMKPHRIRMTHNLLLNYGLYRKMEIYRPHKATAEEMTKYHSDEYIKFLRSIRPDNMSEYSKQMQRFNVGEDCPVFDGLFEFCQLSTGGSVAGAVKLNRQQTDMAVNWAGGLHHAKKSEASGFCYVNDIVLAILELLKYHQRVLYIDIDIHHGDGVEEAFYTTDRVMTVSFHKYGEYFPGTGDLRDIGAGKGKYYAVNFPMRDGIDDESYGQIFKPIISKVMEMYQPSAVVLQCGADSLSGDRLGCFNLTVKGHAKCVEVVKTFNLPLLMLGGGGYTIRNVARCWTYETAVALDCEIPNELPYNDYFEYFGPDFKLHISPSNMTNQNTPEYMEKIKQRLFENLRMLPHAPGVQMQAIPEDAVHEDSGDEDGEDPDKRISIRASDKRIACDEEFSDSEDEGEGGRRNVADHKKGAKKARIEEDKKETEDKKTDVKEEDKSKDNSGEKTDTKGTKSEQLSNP
Chain of Histone deacetylase 2/Nuclear receptor corepressor 2 [395-498] (Q9Y618 395-498, further chain): as the sequence (Q9Y618 395-498, further chain) above
Chain of Histone deacetylase 3/Nuclear receptor corepressor 2 [395-498] (O15379 whole entry): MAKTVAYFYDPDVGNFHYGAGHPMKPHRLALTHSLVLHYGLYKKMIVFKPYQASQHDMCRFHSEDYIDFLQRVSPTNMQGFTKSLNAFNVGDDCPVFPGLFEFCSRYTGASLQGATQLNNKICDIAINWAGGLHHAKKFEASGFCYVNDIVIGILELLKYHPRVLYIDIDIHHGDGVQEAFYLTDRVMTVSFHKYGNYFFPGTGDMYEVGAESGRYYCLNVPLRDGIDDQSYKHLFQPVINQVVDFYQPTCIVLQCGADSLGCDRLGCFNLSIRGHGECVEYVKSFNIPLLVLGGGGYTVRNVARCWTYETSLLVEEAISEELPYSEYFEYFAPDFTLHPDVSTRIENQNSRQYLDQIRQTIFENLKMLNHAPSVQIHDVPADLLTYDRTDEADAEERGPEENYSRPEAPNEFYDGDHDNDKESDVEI
Chain of Histone deacetylase 3/Nuclear receptor corepressor 2 [395-498] (Q9Y618 395-498, further chain): as the sequence (Q9Y618 395-498, further chain) above

Row | IC50 [1] [µM] | IC50 [2] [µM] | IC50 [3] [µM] | IC50 (Histone deacetylase 6) [µM] | IC50 (Histone deacetylase 8) [µM] | Compound
1 | 1.78 | 15.1 | 13.2 | – | – | CCCCNNC(=O)c1ccc(F)cc1 [SR-3203]
2 | 1.35 | 9.09 | 8.86 | – | – | CCCCNNC(=O)c1ccc(OC(F)(F)F)cc1 [SR-3204]
3 | 0.43 | 2.52 | 1.91 | – | – | CCCCNNC(=O)c1ccc(OC)cc1 [SR-3206]
4 | 0.12 | 0.88 | 0.23 | 9.57 | 0.72 | CCCCNNC(=O)c1ccc(N(C)C)cc1 [SR-3208]
5 | 2.5 | 3.8 | 3 | – | – | CCCCNNC(=O)c1ccc(Cl)cc1 [SR-3210]
6 | 1.08 | 7.65 | 7.4 | – | – | O=C(NNCCC1CCCC1)c1ccc(Br)cc1 [SR-3297]
7 | 1.67 | 3.25 | 1.76 | – | – | CN(C)c1ccc(C(=O)NNCC2CCCC2)cc1 [SR-3298]
8 | 0.07 | 1.04 | 0.19 | 6.83 | 0.49 | CCCCNNC(=O)c1ccc(C(C)(C)C)cc1 [SR-3302]
9 | 6.98 | 28.4 | 8.81 | – | – | O=C(NNCC1CCCC1)c1ccc(Br)cc1 [SR-3364]
10 | > 50 | > 50 | > 50 | – | – | O=C(NNCCCC1CCCC1)c1ccc(Br)cc1 [SR-3365]
11 | 20 | 16.1 | 10.3 | 39.1 | – | CCCCCCNNC(=O)c1ccc(Br)cc1 [SR-3367]
12 | 0.92 | 1.92 | 1.87 | 5.73 | 4.87 | CCCCCNNC(=O)c1ccc(Br)cc1 [SR-3970]

Row | Compound | IC50 [1] [µM] | IC50 [2] [µM] | IC50 [3] [µM] | IC50 (Histone deacetylase 6) [µM] | IC50 (Histone deacetylase 8) [µM]
13 | CCCCNNC(=O)c1ccc(Br)cc1 [UF010] | – | – | – | 9.09 | 2.83
